Where two headings read alike, the source gives them in different places.
Experiments:
[1] = target: T1, MCL-1ΔNΔC (Homo sapiens, UniProt Q07820); settings: pre-incubation, re-concentration, FP with FITC-BID BH3
Experimental: A small sample was taken as a pre-dilution control. Compound-treated protein and unmodified protein were then diluted to a volume of 20 mL, and subsequently re-concentrated to 500 mL using 10K centrifugal filter units (Amicon). FP binding analysis was performed as described above by adding serial dilutions of compound-modified MCL-1 and unmodified MCL-1, both before and after dilution, followed by FITC-BID BH3 (15 nM) to a 96-well black flat bottom plate (Costar). FP measurements and analyses are then performed as described above.
Briefly, MCL-1ΔNΔC was pre-incubated with the small molecule inhibitors prior to dilution with buffer. The solution was concentrated to its original volume and fluorescence polarization was performed. Compounds that bind covalently will remain bound to the protein, whereas compounds that bind reversibly will be exchanged upon dilution.

[2] = target: T1, MCL-1ΔNΔC; assay: High-throughput competitive FP binding screen, FITC-MCL-1 SAHB/MCL-1ΔNΔC interaction; set-up: the C-terminal alpha-helix was deleted from each of these constructs; GST (N, cleaved yes); made in house
[3] = target: BCL-XLΔC (Homo sapiens, UniProt Q07817); assay: High-throughput competitive FP binding screen, FITC-BAD BH3/BCL-XLΔC interaction
Chain of BCL-XLΔC (Q07817 1-212 limits assumed, stated change not applied): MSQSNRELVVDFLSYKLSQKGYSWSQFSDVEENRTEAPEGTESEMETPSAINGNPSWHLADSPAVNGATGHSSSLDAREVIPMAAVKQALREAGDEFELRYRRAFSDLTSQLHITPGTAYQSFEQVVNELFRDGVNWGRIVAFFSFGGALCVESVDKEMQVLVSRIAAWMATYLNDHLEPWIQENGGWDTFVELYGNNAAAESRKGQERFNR

[4] = tested on: MCL-1ΔNΔC; assay: High-throughput competitive FP binding screen, FITC-MCL-1 SAHB/MCL-1ΔNΔC interaction
[5] = FITC-MCL-1 SAHB/MCL-1ΔNΔC interaction pair, competitive FP screen
[6] = FITC-BAD BH3/BCL-XLΔC interaction pair, competitive FP screen
[7] = selectivity for MCL-1ΔNΔC over BCL-XLΔC targeting (BCL-XL % Bound minus MCL-1 % Bound)

T1 sequence (Q07820 172-320 limits assumed, stated change not applied): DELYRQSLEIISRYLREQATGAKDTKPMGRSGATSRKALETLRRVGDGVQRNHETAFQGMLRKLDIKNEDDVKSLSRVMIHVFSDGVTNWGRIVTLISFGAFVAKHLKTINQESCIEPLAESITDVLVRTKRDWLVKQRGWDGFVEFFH

Row | SMILES | mechanism of binding to MCL-1ΔNΔC upon dilution (reversible vs covalent) [1] | MCL-1% Bound [2] | BCL-XL % Bound [3] | Spec Values [4] | MCL-1% Bound [2, 5] | BCL-XL % Bound [3, 6] | Spec Values [4, 7]
1 | Cc1cc2c(C(C)C)c(O)c(O)c(C=O)c2c(O)c1-c1c(C)cc2c(C(C)C)c(O)c(O)c(C=O)c2c1O [Gossypol] | bound reversibly |  |  |  |  |  | 
2 | Oc1c(Cl)cc(Cl)c(Cl)c1Cc1c(O)c(Cl)cc(Cl)c1Cl [Hexachlorophene, reference compound] |  | 41.01% | 100.4% | 59.35 |  |  | 
3 | O=c1c(O)c(-c2cc(O)c(O)c(O)c2)oc2cc(O)cc(O)c12 [Myricetin, reference compound] |  |  |  |  | 34.13% | 102.4% | 68.23
4 | O=c1c(O)c(-c2ccc(O)c(O)c2)oc2cc(O)cc(O)c12 [Quercetin, reference compound] |  |  |  |  | 16.69% | 105.3% | 88.65
5 | O=C(OCC1O[C@H](OC(=O)c2cc(O)c(O)c(OC(=O)c3cc(O)c(O)c(O)c3)c2)[C@H](OC(=O)c2cc(O)c(O)c(OC(=O)c3cc(O)c(O)c(O)c3)c2)[C@@H](OC(=O)c2cc(O)c(O)c(OC(=O)c3cc(O)c(O)c(O)c3)c2)[C@@H]1OC(=O)c1cc(O)c(O)c(OC(=O)c2cc(O)c(O)c(O)c2)c1)c1cc(O)c(O)c(OC(=O)c2cc(O)c(O)c(O)c2)c1 (stereo partly shown) [Tannic Acid, reference compound] |  |  |  |  | 15.94% | 98.26% | 82.32
6 | N#C/C(=C\c1ccc(O)c(O)c1)C(N)=S [Tyrphostin 47, reference compound] |  | 34.55% | 100.8% | 66.21 |  |  | 
7 | Cc1ccc2c(c1)CC[C@H]1C3CC[C@H](NCCCCCCN4C(=O)C=CC4=O)[C@@]3(C)CC[C@H]21 (stereo partly shown) [U73122, reference compound] |  |  |  |  | 56.6% | 106.3% | 49.67
8 | O=c1c(O)c(-c2cc(O)c(O)c(O)c2)oc2cc(O)cc(O)c12 [drawing 14] |  |  |  |  | 34.13% | 102.4% | 68.23
9 | N#C/C(=C\c1ccc(O)c(O)c1)C(N)=S [drawing 16] |  | 34.55% | 100.8% | 66.21 |  |  | 
10 | COc1ccc2c(c1)CC[C@@H]1C2CC[C@@]2(C)C1CC[C@@H]2NCCCCCCN1C(=O)CCC1=O (stereo partly shown) [drawing 18] |  |  |  |  | 56.6% | 106.3% | 49.67
11 | O=c1cc(-c2ccccc2)oc2cc(O)c(O)c(O)c12 [drawing 19] |  |  |  |  | 10.32% | 104.2% | 93.84
12 | O=c1oc2c(O)c(O)cc3c(=O)oc4c(O)c(O)cc1c4c23 [drawing 20] |  |  |  |  | 1.26% | 90.58% | 89.32
13 | Oc1c(Cl)cc(Cl)c(Cl)c1Cc1c(O)c(Cl)cc(Cl)c1Cl [drawing 23] |  | 41.01% | 100.4% | 59.35 |  |  | 
14 | O=C(OCC1O[C@H](OC(=O)c2cc(O)c(O)c(OC(=O)c3cc(O)c(O)c(O)c3)c2)[C@H](OC(=O)c2cc(O)c(O)c(OC(=O)c3cc(O)c(O)c(O)c3)c2)[C@@H](OC(=O)c2cc(O)c(O)c(OC(=O)c3cc(O)c(O)c(O)c3)c2)[C@@H]1OC(=O)c1cc(O)c(O)c(OC(=O)c2cc(O)c(O)c(O)c2)c1)c1cc(O)c(O)c(OC(=O)c2cc(O)c(O)c(O)c2)c1 (stereo partly shown) [drawing 25] |  |  |  |  | 15.94% | 98.26% | 82.32
15 | COc1ccc(N(C)C(=S)Nc2ccc3nc(-c4ccco4)c(-c4ccco4)nc3c2)cc1 [drawing 44] |  |  |  |  | 8.332% | 81.17% | 72.84
16 | CC1=NOC(=O)/C1=C/c1ccc(-c2ccc(Cl)cc2)o1 [drawing 53] |  | 38.47% | 101.5% | 65.98 |  |  | 
17 | CC1=C(C#N)C(=O)N=C(O)/C1=C\c1ccc(-c2ccc(S(N)(=O)=O)cc2)o1 [drawing 84] |  |  |  |  | 21.8% | 98.2% | 76.4

Row | SMILES | mechanism of binding to MCL-1ΔNΔC upon dilution (reversible vs covalent) [1] | MCL-1% Bound [2] | BCL-XL % Bound [3] | Spec Values [4] | MCL-1% Bound [2, 5] | BCL-XL % Bound [3, 6] | Spec Values [4, 7]
18 | O=C1NC(=O)N(CCC2=CCCCC2)C(=O)/C1=C/c1cnc(-c2ccccc2)nc1 [drawing 98] |  | 43.51% | 106.9% | 63.4 |  |  | 
19 | CCOc1cc(C(Nc2cccnc2)c2ccc3cccnc3c2O)ccc1O (stereo not shown) [drawing 145] |  |  |  |  | −0.3% | 108.4% | 108.7
20 | Cc1cc2c(C(C)C)c(O)c(O)c(C=O)c2c(O)c1-c1c(C)cc2c(C(C)C)c(O)c(O)c(C=O)c2c1O [drawing 158] |  | 3.955% | 101% | 97.07 |  |  | 
21 | O=c1cc(-c2ccccc2)oc2cc(O)c(O)c(O)c12 [drawing 161] |  |  |  |  | 10.32% | 104.2% | 93.84
22 | O=c1c(O)c(-c2ccc(O)c(O)c2)oc2cc(O)cc(O)c12 [drawing 167] |  |  |  |  | 16.69% | 105.3% | 88.65
23 | O=c1c(O)c(-c2ccc(O)c(O)c2)oc2cc(O)cc(O)c12 [drawing 172] |  |  |  |  | 9.24% | 92.49% | 83.25
24 | O=C(OCC1O[C@H](OC(=O)c2cc(O)c(O)c(OC(=O)c3cc(O)c(O)c(O)c3)c2)[C@H](OC(=O)c2cc(O)c(O)c(OC(=O)c3cc(O)c(O)c(O)c3)c2)[C@@H](OC(=O)c2cc(O)c(O)c(OC(=O)c3cc(O)c(O)c(O)c3)c2)[C@@H]1OC(=O)c1cc(O)c(O)c(OC(=O)c2cc(O)c(O)c(O)c2)c1)c1cc(O)c(O)c(OC(=O)c2cc(O)c(O)c(O)c2)c1 (stereo partly shown) [drawing 178] |  |  |  |  | 15.94% | 98.26% | 82.32
25 | CC1=C(C#N)C(=O)N=C(O)/C1=C\c1ccc(-c2ccc(S(N)(=O)=O)cc2)o1 [drawing 191] |  |  |  |  | 21.8% | 98.2% | 76.4
26 | CC1=C(C#N)C(=O)N=C(O)/C1=C\c1ccc(-c2ccc(S(N)(=O)=O)cc2)o1 [drawing 192] |  |  |  |  | 17.4% | 93.7% | 76.4
27 | COc1ccc(N(C)C(=S)Nc2ccc3nc(-c4ccco4)c(-c4ccco4)nc3c2)cc1 [drawing 205] |  |  |  |  | 8.322% | 81.17% | 72.84
28 | O=c1c(O)c(-c2cc(O)c(O)c(O)c2)oc2cc(O)cc(O)c12 [drawing 222] |  |  |  |  | 34.13% | 102.4% | 68.23
29 | N#C/C(=C\c1ccc(O)c(O)c1)C(N)=S [drawing 231] |  | 34.55% | 100.8% | 66.21 |  |  | 
30 | O=C1NC(=O)N(CCC2=CCCCC2)C(=O)/C1=C/c1cnc(-c2ccccc2)nc1 [drawing 249] |  | 43.51% | 106.9% | 63.4 |  |  | 
31 | CC1=NOC(=O)/C1=C/c1ccc(-c2ccc(Cl)cc2)o1 [drawing 255] |  | 38.47% | 101.5% | 62.98 |  |  | 
32 | Oc1c(Cl)cc(Cl)c(Cl)c1Cc1c(O)c(Cl)cc(Cl)c1Cl [drawing 274] |  | 41.01% | 100.4% | 59.35 |  |  | 
33 | COc1ccc2c(c1)CC[C@@H]1C2CC[C@@]2(C)C1CC[C@@H]2NCCCCCCN1C(=O)CCC1=O (stereo partly shown) [drawing 365] |  |  |  |  | 56.6% | 106.3% | 49.67

— patent publication US20150315211A1, “SMALL MOLECULES FOR THE MODULATION OF MCL-1 AND METHODS OF MODULATING CELL DEATH, CELL DIVISION, CELL DIFFERENTIATION AND METHODS OF TREATING DISORDERS” (priority 2010, published 2015)
